Experimental findings from ChEMBL document CHEMBL3507680, “University of Dundee, Gates Library screen for HepG2 cell viability” are described below.

The data set is described as follows: Human HepG2 cell viability assay in 384 well format. The class given is toxicity, cell-based. Also on record: dose 125 nL, time 70.5 hour; cytotoxicity at 70.5 h: concentration not given beside the values. The note with it: HepG2 cells, read-out: Inhibition.
Consider `CN(Cc1ccsc1)Cc1nc(-c2ccncc2)no1`, for which the cytotoxicity at 70.5 h worked out at 20.5%. Then `Cc1ncsc1CCN(C)C(=O)CCc1nc2cccnc2n1C`, with -11.9%.

`CCC[C@@H]1CN(C(=O)c2cc(-c3cccs3)n(C)n2)C[C@H]1NS(C)(=O)=O`: the cytotoxicity at 70.5 h was -4.08%. Take `Cc1ccccc1C(CC(=O)NCc1n[nH]c(N)n1)c1ccccc1` (stereo not drawn): the cytotoxicity at 70.5 h is -4.71%. For `Cc1nc(C(=O)N2CCC3(CC2)CC(=O)N(CC2CCCO2)C3)cs1` (stereo not drawn) the value was -9.89%.

Regarding `CSCCCN1CCc2nc(N(C)C)nc(N3CCC(O)CC3)c2C1`, the cytotoxicity at 70.5 h was -6.06%. Consider `Cc1nonc1CN1CC[C@@](O)(C2CCOCC2)[C@H](C)C1`, for which the cytotoxicity at 70.5 h is -11%.

As to `Cc1cc(CN2CCC(CNC(=O)Cc3ccc(F)cc3)C2)[nH]n1` (stereo not drawn), the cytotoxicity at 70.5 h is -7.47%. Then `CN(C)CCN1CC2(CCN(C(=O)c3cnccn3)CC2)OC1=O`, with -2.71%; and `CC(=O)c1ccc(NC(=O)NC(C(=O)N(C)C)C(C)C)cc1` (stereo not drawn), with -4.29%; and `O=C1NCCCc2[nH]c(C3CCCN(C(=O)C4CC4)C3)nc21` (stereo not drawn), with -10.4%.

Consider `c1cc(CN2CCC(CCn3cccn3)CC2)cc(Cn2cccn2)c1`, for which the cytotoxicity at 70.5 h was -2.62%. Turning to `CC(C)N1CCC(CC(=O)N2CCN(Cc3nccn3C)CC2)CC1`, the cytotoxicity at 70.5 h was -6.78%. With `O=C(CCc1cc(Cl)no1)N1CCCCC1CCn1ccnc1` (stereo not drawn), the cytotoxicity at 70.5 h is -5.27%. For `COC(=O)c1cc2n(n1)CCN(C(=O)c1csc(CN(C)C)n1)C2` the value was -12.3%. Then `CCC[C@@H]1CN(Cc2c[nH]nc2-c2ccc(OC)cc2)C[C@H]1NC(C)=O`, with -7.5%; and `Cc1ccsc1CN(C)Cc1ncccc1C(=O)O`, with -2.01%. For `Cc1csc2c(N3CCNC(C(=O)Nc4ccc(F)cc4)C3)ncnc12` (stereo not drawn) the value was -9.29%.

For the molecule `CCc1ccccc1CN1CCC(N2CCCC2=O)CC1`, the cytotoxicity at 70.5 h is -8.77%. `CN(CCN1CCCCC1=O)Cc1cc2cc3c(cc2[nH]c1=O)OCO3`: the cytotoxicity at 70.5 h is -8.86%. `COc1ncccc1C1CC(=O)Nc2cc(NS(C)(=O)=O)ccc21` (stereo not drawn): the cytotoxicity at 70.5 h is -9.6%. Then `N#CC1CCCN(S(=O)(=O)c2ccc(C(=O)NCC(F)F)cc2)C1` (stereo not drawn), with 3.7%. Then `Cc1cccc(C(C(=O)NCc2cc(C)[nH]n2)N(C)C)c1` (stereo not drawn), with 7.18%; and `COc1cccc2c1OCC(C(=O)N1CCSCC1)C2` (stereo not drawn), with -8.37%; and `Cc1cccc(Cc2nc3c([nH]2)CCCNC3=O)c1`, with -5.33%. For `Cc1nnsc1CN(C)C(=O)CCn1cnc2ccccc21`, the cytotoxicity at 70.5 h is -9.98%. For `Cc1ccsc1[C@@H]1CCN(C(=O)CCc2cc(O)no2)C[C@H]1O` the value was -15.1%; for `CC(C)(C)C(=O)N[C@H]1CC[C@H](Nc2nccc(-c3ccncc3)n2)C1`, -6.97%. Consider `COc1c(C)cnc(CN2CCCCC2CCN2CCOCC2)c1C` (stereo not drawn), for which the cytotoxicity at 70.5 h was -11.7%.

With `CN(C)C[C@@H]1CN(C(=O)c2cc(S(N)(=O)=O)ccc2F)C[C@@H]1CO`, the cytotoxicity at 70.5 h was -4.5%. Regarding `COc1cccc2c1OCC(NCc1cnn(-c3ccccc3)c1)C2` (stereo not drawn), the cytotoxicity at 70.5 h was 14.4%. Then `COc1ccccc1OC1(C(=O)O)CCN(c2nccnc2OC)CC1`, with 23.1%; and `C=C(C)COc1cccc(C(=O)N2CCC3(CC2)CN(C)CCN3C)c1`, with -7.19%; and `COc1cccc(-c2cccc(N3CCC(N[C@@H]4CCOC4)CC3)c2)c1`, with 2.44%. As to `CCc1noc(CN(C)Cc2cc3ccc(Cl)cc3[nH]c2=O)n1`, the cytotoxicity at 70.5 h is -5.21%.

With `Cc1nc2ccccc2nc1NCc1nnc2n1CCC2`, the cytotoxicity at 70.5 h stood at 0.938%. In the case of `CCOC(=O)CNC(=O)N1CCc2onc(-c3ccc(Cl)cc3)c2C1`, the cytotoxicity at 70.5 h is -16.3%. For `Cc1cc(NCCNS(C)(=O)=O)nc2cc3c(cc12)CCC3` the value was -5.01%.
